Experimental data taken from the NIST ThermoML archive (doi:10.1016/j.jct.2012.11.014).

Test: xn = mol fraction of the nth substance listed
Settings: 101 kPa, Liquid; for speed of sound: Frequency=2 MHz, Linear variable-path acoustic interferometer; for viscosity: Oscillating disk viscometry; for mass density: Vibrating tube method

C[NH+](C)C.O=S(=O)([O-])O [trimethylammonium hydrogen sulfate] + C[S+](C)[O-]
Settings | mass density, 308.15 K [kg/m3] | mass density, 313.15 K [kg/m3] | speed of sound, 308.15 K [m/s] | speed of sound, 313.15 K [m/s] | viscosity, 308.15 K [mPa·s] | viscosity, 313.15 K [mPa·s]
x1 = 0.013 | 1093.72 | 1089.1 | 1462 | 1447 | 1.75 | 1.64
x1 = 0.0356 | 1106.81 | 1102.07 | 1466 | 1449 | 1.88 | 1.75
x1 = 0.0539 | 1116.99 | 1112.21 | 1469 | 1452 | 1.99 | 1.85
x1 = 0.0982 | 1141.18 | 1136.31 | 1476 | 1460 | 2.23 | 2.06
x1 = 0.1259 | 1155.67 | 1150.73 | 1478 | 1464 | 2.35 | 2.17
x1 = 0.1608 | 1173.53 | 1168.35 | 1484 | 1471 | 2.51 | 2.31
x1 = 0.1982 | 1191.94 | 1186.62 | 1490 | 1476 | 2.67 | 2.45
x1 = 0.2422 | 1212.56 | 1207.12 | 1494 | 1483 | 2.82 | 2.56
x1 = 0.2956 | 1236.49 | 1230.97 | 1500 | 1490 | 3 | 2.7
x1 = 0.3855 | 1274.01 | 1268.16 | 1510 | 1501 | 3.24 | 2.88
x1 = 0.4611 | 1303.22 | 1297.1 | 1516 | 1510 | 3.41 | 3
x1 = 0.545 | 1333.32 | 1326.92 | 1524 | 1516 | 3.54 | 3.08
x1 = 0.6387 | 1364.4 | 1357.69 | 1530 | 1525 | 3.68 | 3.14
x1 = 0.7076 | 1385.63 | 1378.66 | 1534 | 1530 | 3.73 | 3.16
x1 = 0.7823 | 1407.49 | 1400.24 | 1538 | 1536 | 3.81 | 3.18
x1 = 0.8444 | 1424.52 | 1417.09 | 1544 | 1540 | 3.85 | 3.18
x1 = 0.907 | 1440.98 | 1433.37 | 1547 | 1545 | 3.88 | 3.18
x1 = 0.9524 | 1452.15 | 1444.43 | 1552 | 1549 | 3.92 | 3.17
x1 = 1 | 1463.5 | 1455.63 | 1556 | 1552 | 3.94 | 3.16
